Measurements published in patent publication US10874743B2, “IRAK degraders and uses thereof” (Kymera Therapeutics, Inc., priority 2017, dated 2020).

Target: T1, IRAK4 (Homo sapiens, UniProt Q9NWZ3)
T1 sequence (Q9NWZ3 1-460): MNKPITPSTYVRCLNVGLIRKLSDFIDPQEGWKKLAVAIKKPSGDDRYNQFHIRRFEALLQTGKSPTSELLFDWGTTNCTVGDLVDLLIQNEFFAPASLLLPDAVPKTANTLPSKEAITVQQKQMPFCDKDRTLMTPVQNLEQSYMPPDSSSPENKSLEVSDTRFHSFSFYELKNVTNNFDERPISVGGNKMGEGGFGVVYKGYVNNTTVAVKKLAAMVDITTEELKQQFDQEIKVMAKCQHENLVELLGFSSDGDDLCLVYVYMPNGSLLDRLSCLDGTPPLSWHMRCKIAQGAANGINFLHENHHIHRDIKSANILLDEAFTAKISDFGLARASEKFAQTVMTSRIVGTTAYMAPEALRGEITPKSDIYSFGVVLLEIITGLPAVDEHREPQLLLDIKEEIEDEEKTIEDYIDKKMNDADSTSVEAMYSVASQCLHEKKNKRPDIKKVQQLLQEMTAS
Assay: PBMC degradation assay (western blot, % IRAK4 degraded after 4 hours)
Type: cell-based
Details: human PBMCs

NC(=O)c1nn(-c2ccc(C(=O)NCCOCCOCCNc3cccc4c3C(=O)N(C3CCC(=O)NC3=O)C4=O)cc2)cc1NC(=O)c1coc(-c2ccnc(NCC(F)(F)F)c2)n1 (centres unmarked) [I-127, N-[3-carbamoyl-1-[4-[2-[2-[2-[[2-(2,6-dioxo-3-piperidyl)-1,3-dioxo-isoindolin-4-yl]amino]ethoxy]ethoxy]ethylcarbamoyl]phenyl]pyrazol-4-yl]-2-[2-(2,2,2-trifluoroethylamino)-4-pyridyl]oxazole-4-carboxamide]
PBMC % IRAK4 Degradation: A (>50% degradation)

NC(=O)c1nn(-c2ccc(C(=O)NCCCCCNCCNc3cccc4c3C(=O)N(C3CCC(=O)NC3=O)C4=O)cc2)cc1NC(=O)c1coc(-c2ccnc(NCC(F)(F)F)c2)n1 (centres unmarked) [I-172, N-[3-carbamoyl-1-[4-[5-[2-[[2-(2,6-dioxo-3-piperidyl)-1,3-dioxo-isoindolin-4-yl]amino]ethylamino]pentylcarbamoyl]phenyl]pyrazol-4-yl]-2-[2-(2,2,2-trifluoroethylamino)-4-pyridyl]oxazole-4-carboxamide]
PBMC % IRAK4 Degradation: A (>50% degradation)
